Test [1] is described as follows: Fluorescence spectroscopy of labelled peptide with other phospholipids. It is filed as binding. The conditions noted are these: 1 μM peptide. As for the experimental part: 1-palmitoyl-2-oleoyl-sn-glycero-3-phosphocholine (POPC), 1-palmitoyl-2-oleoyl-sn-glycero-3-phosphate (POPA), 1-palmitoyl-2-oleoyl-sn-glycero-3-phospho-L-serine (POPS), 1-palmitoyl-2-oleoyl-sn-glycero-3-phosphoethanolamine (PE), and 1,2-dipalmitoyl-sn-glycero-3-phospho-(1′-rac-glycerol) (DPPG) were obtained from Avanti Polar Lipids Inc (Alabaster, Ala.).
Changes in the emission intensity of the [atn]SS-02 and the [ald]SS-02 were measured using a Hitachi F-4500 fluorescence spectrophotometer. The different solvents used to dissolve the various phospholipids (chloroform, methanol and ethanol) had negligible effect on the fluorescence spectrum of [atn]SS-02 and [ald]SS-02. All experiments were done in low ionic solution (deionized water) to optimize electrostatic interactions of peptides with phospholipids.

Test [2] addresses T1, cytochrome c (Equus caballus, UniProt P00004). The test can be described thus: Cytochrome c reduction kinetics (absorption spectroscopy). It is filed as biochemical. The method, then: Increasing amounts of aromatic-cationic peptides were added to a solution of oxidized cytochrome c. The formation of reduced cytochrome c was monitored by absorbance at […]. The rate of cytochrome c reduction was determined by non-linear analysis (Prizm software).
Time-resolved UV-Visible absorption spectroscopy was used to study the electron transport process of cytochrome c in the presence of peptides. Reduced cytochrome c was monitored by absorbance at a broad-band spectral range (200-1100 nm). The absorption changes were recorded with a UV/Visible spectrophotometer (Ultrospec 3300 pro, GE) in quartz cells with path lengths of 1 or 2 mm. N-acetylcysteine (NAC) and glutathione were used as electron donors to reduce oxidized cytochrome c. The rate constant of cytochrome c reduction was estimated by adding various concentrations of peptides. The dose dependence of the peptides was correlated to the cytochrome c reduction kinetics.
Absorption spectroscopy (UltroSpec 3300 Pro; 220-1100 nm) was used to determine if SS-31 modulates cytochrome c reduction (FIG. 1). Reduction of cytochrome c with glutathione is associated with multiple shifts in the Q band (450-650 nm), with a prominent shift at 550 nm. […] Accordingly, the aromatic-cationic peptides of the present disclosure are useful for altering the structure and oxidation state of cytochrome c, and are useful for the prevention or treatment of diseases or disorders characterized by dysregulation of cytochrome c.
Reduction of cytochrome c was monitored by increase in absorbance at 550 nm. […] Similar results were obtained using N-acetylcysteine (NAC) as a reducing agent (not shown). […] Accordingly, aromatic-cationic peptides of the present disclosure are useful for the prevention or treatment of diseases or disorders characterized by dysregulation of cytochrome c and are useful for facilitating cytochrome c reduction.

In test [3] the target is T1, cytochrome c. The test can be described thus: Cyclic voltammetry of cytochrome c. It is filed as biochemical.
Test [4] has as its target T1, cytochrome c. The test can be described thus: Photoluminescence of cytochrome c. The test is classed as biochemical. The conditions noted are these: excitation 532.8 nm. As for the experimental part: Photoluminescence (PL) was carried out to examine the effects of SS-31 on the electronic structure of conduction band of the heme of cytochrome c, an energy state responsible for electronic transport (FIG. 3). A […] laser (532.8 nm) was used to excite electrons in cytochrome c (FIG. 3A). Strong PL emission in cytochrome c state can be clearly identified at 650 nm (FIG. 3B). […] Accordingly, aromatic-cationic peptides of the present disclosure are useful for the prevention or treatment of diseases or disorders characterized by dysregulation of cytochrome c, for enhancing electron capacity in cytochrome c, and for treatment of diseases or disorders characterized by dysregulation of electron capacity in cytochrome c.

For test [5], the target named is T1, cytochrome c. The test can be described thus: Circular dichroism of Soret band of cytochrome c. It is filed as biochemical. As for the experimental part: Circular dichroism (Olis spectropolarimeter, DSM20) was carried out to monitor Soret band (negative peak at 415 nm), as a probe for the π-π* heme environment in cytochrome c (FIG. 4). […] The increase in π-π* interaction around the heme would enhance electron tunneling which would be favorable for electron diffusion. Accordingly, aromatic-cationic peptides of the present disclosure are useful for the prevention or treatment of diseases or disorders characterized by dysregulation of cytochrome c, and to induce novel π-π interactions around cytochrome c heme.
On the technique in general: CD spectra are sensitive to the conformation of chiral molecules.

For test [6], the system named is isolated rat kidney mitochondria. The test can be described thus: O2 consumption in isolated mitochondria. The test is classed as biochemical. The method, then:
Fresh mitochondria were isolated from rat kidney as described previously. Electron flux was measured by O2 consumption (Oxygraph Clark electrode) as previously described using different substrates for C1 (glutamate/malate), C2 (succinate), and C3 (TMPD/ascorbate). Assays were carried out under low substrate conditions in order to avoid saturating the enzyme reactions. ATP production in isolated mitochondria was determined kinetically using the luciferase method (Biotherma) in a 96-well luminescence plate reader (Molecular Devices). The initial maximal rate for ATP synthesis was determined over the first minute.
Oxygen consumption of isolated rat kidney mitochondria was determined using the Oxygraph (FIG. 5). Rates of respiration were measured in the presence of different concentrations of SS-31 in state 2 (400 μM ADP only), state 3 (400 μM ADP and 500 μM substrates) and state 4 (substrates only). All experiments were done in triplicate with n=4−7. […] Accordingly, aromatic-cationic peptides of the present disclosure are useful for promoting electron transfer to oxygen without uncoupling mitochondria, increasing O2 consumption, and treating diseases or conditions related to dysregulation of O2 consumption in mitochondria.
SS-20 or SS-31 was added at 100 μM concentrations to isolated mitochondria in respiration buffer containing 0.5 mM succinate (complex II substrate) and 400 μM ADP. Similar increases in O2 consumption were observed when low concentrations of complex I substrates (glutamate/malate) were used (data not shown). […] Accordingly, targeting SS-20 and SS-31 to the IMM can facilitate electron flux in the electron transport chain and improve ATP synthesis, especially under conditions of reduced substrate supply.
SS-20 or SS-31 was added at 10 μM or 100 μM concentrations to isolated mitochondria in respiration buffer containing glutamate/malate (complex I substrate), 0.5 mM succinate (complex II substrate) or 3 μM TMPD/1 mM ascorbate (direct reductant of cytochrome c). 400 μM ADP was added to initiate State 3 respiration.

“Also recorded” adds a separate entry of the source.

T1 sequence (P00004 2-105 limits assumed): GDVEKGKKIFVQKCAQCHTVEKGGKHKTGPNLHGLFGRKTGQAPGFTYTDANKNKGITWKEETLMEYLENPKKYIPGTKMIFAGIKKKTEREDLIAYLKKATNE

As for 2′,6′-Dmt-D-Arg-Ald-Lys-NH2 [SS-36], the “interaction with POPC, POPE and neutral cholesterol” value in test [1] is listed as “No interaction”.
Turning to D-Arg-2′,6′-Dmt-Lys-Phe-NH2 [SS-31], the “rate of NAC-induced cytochrome c reduction” value in test [2] (N-acetylcysteine (NAC) as reducing agent) is recorded as “dose-dependently increased the rate of NAC-induced cytochrome c reduction”. The “rate (kinetics) of cytochrome c reduction” value in test [2] (glutathione (GSH) as reducing agent, absorbance at 550 nm) is “increased the rate of cytochrome c reduction; also recorded: accelerate the kinetics of cytochrome c reduction”. In addition, the “reduction of cytochrome c by peptide alone” value in test [2] (peptide alone at 100 μM) was “did not reduce cytochrome c”. Besides, the “spectral weight shift in Q band of cytochrome c” value in test [2] (reduction of cytochrome c with glutathione) is “significant spectral weight shift at 550 nm”. Besides, the “reduction/oxidation potentials of cytochrome c” value in test [3] was “does not alter reduction/oxidation potentials”. Further, in test [3] (Au working electrode, Ag/AgCl reference), the “current of cytochrome c reduction and oxidation processes” value was “increased current for both reduction and oxidation processes of cytochrome c”. In addition, the “increase of current (electron diffusion rate)” value in test [3] (cytochrome c:SS-31=1:2, TBE buffer) is on record as around 200%. Besides, the “photoluminescence (PL) intensity of cytochrome c at 650 nm” value in test [4] is “increased dose-dependently”. In addition, in test [5], the “position of Soret band negative peak after peptide (415 nm before)” value was found to be 440 nm. Further, the “O2 consumption in state 3 respiration” value in test [6] (10 μM or 100 μM peptide, complex I or complex II substrates or TMPD/ascorbate, 400 μM ADP) is on record as “increased O2 consumption in state 3 respiration”. Besides, the “electron flux measured by O2 consumption” value in test [6] (100 μM peptide, 0.5 mM succinate, 400 μM ADP) is on record as “promote electron flux”. The “electron transfer to oxygen (rates of respiration)” value in test [6] (state 2, state 3 and state 4, different concentrations of SS-31) was “promoted electron transfer to oxygen without uncoupling mitochondria”.
